Source: US10881719B2, “Combinatorial androgen deprivation with an androgen receptor vaccine” (Wisconsin Alumni Research Foundation, priority 2016, dated 2021)
Square brackets hold non-standard residues; d marks the D form. Peptide text beside a SMILES is read from it. * marks the point of attachment. dPhe(4-NHCONH2) = NC(=O)Nc1ccc(C[C@@H](N)C(=O)O)cc1; Dihydroorotyl(S) = O=C1C[C@@H](C(=O)*)NC(=O)N1; dPhe(4-Cl) = N[C@H](Cc1ccc(Cl)cc1)C(=O)O; Phe(4-NH2) = Nc1ccc(C[C@H](N)C(=O)O)cc1; d2Nal = N[C@H](Cc1ccc2ccccc2c1)C(=O)O; Lys(iPr) = CC(C)NCCCC[C@H](N)C(=O)O; d3Pal = N[C@H](Cc1cccnc1)C(=O)O

What was measured:
[1] = tested on: Myc-CaP/AS tumors; assay: AR expression in MycCaP tumors in vivo after chemical castration, intracellular staining; design: species or system FVB mice; conditions: MycCaP model in vivo, degarelix vs sham, tumors at outgrowth
From the text: Briefly, Human 22Rv1 prostate cancer cells cultured in androgen replete (FCS) or—deprived (CSS) conditions (FIG. 7A), or mouse MycCaP cells serially passaged in untreated (MycCaP/AS) or castrate (MycCaP/CR) mice (FIG. 7B) were collected and analyzed for AR expression by qPCR (left panels), ELISA (center panels), and intracellular staining (ICS, right panels). FIG. 7C, FVB mice were challenged with MycCaP/AS tumor cells, and given degarelix or a sham treatment. At the time of outgrowth, tumors were collected and analyzed for AR expression by intracellular flow cytometry (example histogram with samples stained with IgG or AR-intracellular antibodies; quantified in right panels). FIG. 7D, AR-specific CD8+ T cells were cultured with 22Rv1/FCS or 22Rv1/CSS cells, and evaluated for T-cell activation by CD69 expression (left panel), IFNγ and TNFα cytokine expression (center panel), and cytotoxicity (right panel). In all panels, * indicates p<0.05 by Student's t-test.
FVB mice were inoculated subcutaneously with […] Myc-CaP/AS tumor cells, and followed daily for the presence of palpable tumors. Once tumors were palpable, mice were treated subcutaneously with either degarelix (25 mg/kg) or a vehicle sham treatment every four weeks. […] Tumor growth was measured at least three times weekly, and tumor volumes calculated as we've published (19). […]

[2] = tested on: Myc-CaP/AS tumors; assay: Myc-CaP/AS tumor growth in FVB mice, ADT with or without immunization; format: in vivo; conditions: degarelix alone, MycCaP model
Protocol: Briefly, male FVB mice (n=8) were implanted with MycCaP tumors, treated with degarelix (or sham), and immunized weekly with pTVG-AR or control pTVG4. FIG. 8A, splenocytes were collected and analyzed for immune responses against MycCaP/CR tumor cells by intracellular cytokine staining (left panel) and AR peptide-stimulated splenocytes from pTVG-AR-immunized mice were measured for ability to lyse MycCap/AS vs. MycCap/CR tumor cells (right panel). FIG. 8B depicts mice followed for tumor volume. In all panels, * indicates p<0.05 by Student's t-test. FIG. 8C depicts tumor volume post-challenge of control (sham), degarelix+pTVG4 and degarelix+pTVG-AR.
FVB mice were inoculated subcutaneously with […] Myc-CaP/AS tumor cells, and followed daily for the presence of palpable tumors. Once tumors were palpable, mice were treated subcutaneously with either degarelix (25 mg/kg) or a vehicle sham treatment every four weeks. For immunization studies, degarelix-treated animals were randomized to weekly immunization with 100 μg pTVG4 or pTVG-AR beginning one day after receiving degarelix. Tumor growth was measured at least three times weekly, and tumor volumes calculated as we've published (19). At the time of euthanasia, tumors and spleens were collected. […]

[3] = tested on: PTEN-deficient prostate tumors; assay: Autochthonous prostate tumors in PbCre+ PTENfl/fl mice, PET/CT and necropsy; format: in vivo; conditions: androgen deprivation (degarelix) vs sham, pre- to post-treatment
Protocol: FVB mice were inoculated subcutaneously with […] Myc-CaP/AS tumor cells, and followed daily for the presence of palpable tumors. Once tumors were palpable, mice were treated subcutaneously with either degarelix (25 mg/kg) or a vehicle sham treatment every four weeks. For immunization studies, degarelix-treated animals were randomized to weekly immunization with 100 μg pTVG4 or pTVG-AR beginning one day after receiving degarelix. Tumor growth was measured at least three times weekly, and tumor volumes calculated as we've published (19). At the time of euthanasia, tumors and spleens were collected. For studies using PTEN-deficient mice, animals began receiving degarelix (25 mg/kg) at 20 weeks (+/−two weeks) of age, followed by biweekly immunization with 100 μg pTVG4 or pTVG-AR beginning one day after ADT. Animals were treated until 40 weeks of age (+/−two weeks) before tissue collection.
All mice were intravenously administered between 5-8 MBq of 124I-CLR1404 and then micro positron emission tomography/computed tomography (PET/CT) scanned 96 hrs post-injection. During scanning, mice were anesthetized with 2% isoflurane inhalation gas mixed with 1 L/min of pure oxygen (27). […]
All PET and CT images were co-registered. Image data were analyzed using the General Analysis tools provided by Siemens Inveon Research Workplace (Siemens Medical Solutions). […]

[4] = tested on: prostate tumor cells; assay: AR expression in prostate tumor cells in vitro after treatment with AR antagonists; format: cell-based; conditions: after treatment with AR antagonist

SMILES	AR expression in tumors [1]	tumor growth [2]	124I-CLR1404 mean and max tumor uptake [3]	AR expression in prostate tumor cells [4]
CC(=O)N[C@H](Cc1ccc2ccccc2c1)C(=O)N[C@H](Cc1ccc(Cl)cc1)C(=O)N[C@H](Cc1cccnc1)C(=O)N[C@@H](CO)C(=O)N[C@@H](Cc1ccc(NC(=O)[C@@H]2CC(=O)NC(=O)N2)cc1)C(=O)N[C@H](Cc1ccc(NC(N)=O)cc1)C(=O)N[C@@H](CC(C)C)C(=O)N[C@@H](CCCCNC(C)C)C(=O)N1CCC[C@H]1C(=O)N[C@H](C)C(N)=O [degarelix] (Ac-[d2Nal][dPhe(4-Cl)][d3Pal]S[Phe(4-NH2)](Dihydroorotyl(S))[dPhe(4-NHCONH2)]L[Lys(iPr)]P[dA]-NH2)	increased AR expression in tumors	delay in tumor growth	decreased 124I-CLR1404 mean and max tumor uptake	–
CNC(=O)c1ccc(N2C(=S)N(c3ccc(C#N)c(C(F)(F)F)c3)C(=O)C2(C)C)cc1F [enzalutamide]	–	–	–	increased AR expression
